From US20260137665A1, “COMBINATION THERAPIES FOR THE TREATMENT OF CANCER” (AADI Bioscience, Inc., priority 2022, published 2026) come the findings set out here.

Experiment [1] relates to NCI-H2122 human non-small cell lung cancer xenografts. As to the kind of experiment: Anti-tumor activity in mice bearing NCI-H2122 tumor xenografts. The conditions noted are these: for Response Rate % (Tumor Regression >−30%): NCI-H2122-xenografted mice, doses per Table D. Type of experiment: in vivo. On the procedure:
Next, a similar set of experiments was performed in mice bearing human NCI-H2122 tumor xenografts. NCI-H2122 is a human NSCLC […] cancer cell line that harbors KRAS^G12C and STK11 null (loss of function) mutations.

Experiment [2] relates to UMUC3 human bladder cancer xenografts. Briefly: Anti-tumor activity in mice bearing UMUC3 tumor xenografts.
From the text: UMUC3 is a human transitional cell carcinoma (bladder cancer) cell line harboring KRAS^G12C and PTEN null mutations. PTEN is a negative regulator or mTOR activity (UMUC3 mutation profile: KRAS^G12C, PTEN^null, TP53^F113C, ATM^Q2800fs, CDKN2A^null, UGT2B17^null.)
Briefly, female athymic mice were implanted with NCI-H2122 cells in their right flanks. When tumor volume reached approximately 100-150 mm^3, animals were randomly divided into nine groups (n=6/group), and administered with saline (control), a single agent drug, or a drug combination shown in Table F below according to the administration routes, dosages and administration frequencies shown in Table F below.
Experiment [3] deals with NCI-H2030 human non-small cell lung cancer xenografts. Briefly: Anti-tumor activity in mice bearing NCI-H2030 tumor xenografts. Format: in vivo. The following applies: for Response Rate % (Tumor Regression >−30%): NCI-H2030-xenografted mice, doses per Table A1; for tumor growth inhibition (TGI): NCI-H2030 xenografts, female athymic mice, n=3/group, doses and routes per Table A1. The source says: (NCI-H2030 mutation profile: KRAS^G12C, STK11^E317*, TP53^G262V.) The KRAS G12C mutation, which is common in NSCLC, leads to constitutive activation of the tumor growth-promoting RAS/MAPK signaling pathway. STK11 is a negative regulator of mTOR signaling. The mTOR pathway is often activated in patients with KRAS mutation and contributes to adaptive resistance to KRAS inhibitors.
Female athymic mice were implanted with human NCI-H2030 NSCLC cells in both flanks.

Structures are written as SMILES.

Consider `C=CC(=O)N1CCN(c2nc(=O)n(-c3c(C)ccnc3C(C)C)c3nc(-c4c(O)cccc4F)c(F)cc23)[C@@H](C)C1` (atropisomer, axis not shown; (M)) [sotorasib, 6-Fluoro-7-(2-fluoro-6-hydroxyphenyl)-(1M)-1-[4-methyl-2-(propan-2-yl)pyridin-3-yl]-4-[(2S)-2-methyl-4-(prop-2-enoyl)piperazin-1-yl]pyrido[2,3-d]pyrimidin-2(1H)-one], for which the “Response Rate % (Tumor Regression >−30%)” value is 0% in experiment [1]; 0% in experiment [2] (UMUC3-xenografted mice, doses per Table F); 0% in experiment [3]. For the same molecule, the “tumor growth inhibition (TGI)” value in experiment [1] (NCI-H2122 xenografts, female athymic mice, n=5/group, doses and routes per Table D) stood at 79%; in experiment [2] (UMUC3 xenografts, female athymic mice, n=6/group, doses and routes per Table F), 100%; in experiment [3], 20%. In addition, in experiment [2] (UMUC3-xenografted mice, n=6/group), the “mice tumor-free during the study” value is 0/6. The “mice surviving to the end of the study (Day 42)” value in experiment [2] (UMUC3-xenografted mice, n=6/group, doses per Table F) is listed as 0/6.
Take `CO[C@H]1C[C@@H]2CC[C@@H](C)[C@@](O)(O2)C(=O)C(=O)N2CCCC[C@H]2C(=O)O[C@H]([C@H](C)C[C@@H]2CC[C@@H](OCCO)[C@H](OC)C2)CC(=O)[C@H](C)/C=C(\C)[C@@H](O)[C@@H](OC)C(=O)[C@H](C)C[C@H](C)/C=C/C=C/C=C/1C` [everolimus]: the “Response Rate % (Tumor Regression >−30%)” value in experiment [1] was determined as 10%. Further, in experiment [3], the “Response Rate % (Tumor Regression >−30%)” value worked out at 0% and the “tumor growth inhibition (TGI)” value is given as 22%.
